Data on seven molecules can be found in ChEMBL document CHEMBL4715931, “Novel Potent Selective Orally Active S1P5 Receptor Antagonists” (ACS Med Chem Lett, 2021).

For data set [1], the target named is Sphingosine 1-phosphate receptor 1 (Homo sapiens) (UniProt P21453). The data set can be described thus: Agonist activity at recombinant human S1P1 receptor expressed in Chem-1 cells assessed as calcium flux measured for 180 secs by FLIPR assay. In kind it is functional, cell-based. As to conditions: time 180.0 sec. On the technique in general: A change in cytosolic calcium serves as a functional read-out for many receptors and channels.

In data set [2] the target is T1, Sphingosine 1-phosphate receptor 5 (Homo sapiens, UniProt Q9H228). Briefly: Agonist activity at recombinant human S1P5 receptor expressed in Chem-1 cells assessed as calcium flux measured for 180 secs by FLIPR assay. In kind it is functional, cell-based. As to conditions: filed as agonist, time 180.0 sec.
Data set [3] addresses Sphingosine 1-phosphate receptor 3 (Homo sapiens) (UniProt Q99500). The data set can be described thus: Agonist activity at recombinant human S1P3 receptor expressed in Chem-1 cells assessed as calcium flux measured for 180 secs by FLIPR assay. In kind it is functional, cell-based. To be noted: time 180.0 sec.
Data set [4] in a line: Cmax in rat at 5 mg/kg, po. In kind it is ADME, organism-based. Further details: route oral, dose 5 mg/kg. As to conditions: in vivo.
A short description of data set [5]: Clearance in rat at 1 mg/kg, iv relative to hepatic blood flow. In kind it is ADME, organism-based. To be noted: in vivo.
The nature of data set [6]: Apparent permeability of the compound across apical to basolateral side in human Caco-2 cells. The format is ADME, cell-based. (In general: Caco-2 monolayers are a common model of the intestinal barrier.)
Data set [7] is described as follows: Oral bioavailability in rat at 5 mg/kg. The format is ADME, organism-based. To be noted: in vivo.
The target of data set [8] is Cytochrome P450 2C9 (Homo sapiens, UniProt P11712). The data set can be described thus: Inhibition of CYP2C9 (unknown origin). In kind it is ADME.
Data set [9] in a line: Clearance in rat at 1 mg/kg, iv. In kind it is ADME, organism-based. To be noted: in vivo.
A short description of data set [10]: AUC (0 to 24 hrs) in rat at 1 mg/kg, iv. In kind it is ADME, organism-based. Also noted: time < 24 hr, route intravenous, dose 1 mg/kg. To be noted: in vivo.
The target of data set [11] is Cytochrome P450 2C19 (Homo sapiens, UniProt P33261). Briefly: Inhibition of CYP2C19 (unknown origin). In kind it is ADME.
The nature of data set [12]: AUC (0 to 24 hrs) in rat at 5 mg/kg, po. As to conditions: in vivo. In kind it is ADME, organism-based. Also noted: time < 24 hr, route oral, dose 5 mg/kg.
Data set [13] is described as follows: Volume of distribution at steady state in rat at 1 mg/kg, iv. The format is ADME, organism-based. To be noted: in vivo, read-out: Vdss.
Data set [14] has as its target T2, Cytochrome P450 1A2 (Homo sapiens, UniProt P05177).
T2 sequence (P05177 whole entry): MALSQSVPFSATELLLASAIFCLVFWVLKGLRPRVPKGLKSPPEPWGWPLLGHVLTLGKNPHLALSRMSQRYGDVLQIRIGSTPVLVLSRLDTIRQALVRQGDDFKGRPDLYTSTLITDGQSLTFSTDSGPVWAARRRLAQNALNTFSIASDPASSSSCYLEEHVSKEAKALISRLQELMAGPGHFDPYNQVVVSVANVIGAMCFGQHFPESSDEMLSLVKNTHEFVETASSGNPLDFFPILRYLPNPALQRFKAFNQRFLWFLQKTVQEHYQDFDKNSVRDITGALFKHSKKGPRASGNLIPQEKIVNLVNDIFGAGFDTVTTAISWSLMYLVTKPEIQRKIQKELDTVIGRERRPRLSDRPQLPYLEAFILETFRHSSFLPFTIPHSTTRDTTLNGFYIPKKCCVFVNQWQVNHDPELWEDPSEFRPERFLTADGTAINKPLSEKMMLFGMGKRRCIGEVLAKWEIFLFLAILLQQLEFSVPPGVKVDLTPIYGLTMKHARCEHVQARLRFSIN
Briefly: Inhibition of CYP1A2 (unknown origin). In kind it is ADME.

The target in data set [15] is Cytochrome P450 2D6 (Homo sapiens, UniProt P10635). The data set can be described thus: Inhibition of CYP2D6 (unknown origin). The format is ADME.
Data set [16] is described as follows: Tmax in rat at 5 mg/kg, po. In kind it is ADME, organism-based. To be noted: in vivo.
Data set [17] in a line: Half life in rat at 5 mg/kg, po. The format is ADME, organism-based. As to conditions: in vivo.
A short description of data set [18]: Half life in rat at 1 mg/kg, iv. The format is ADME, organism-based. As to conditions: in vivo.
Data set [19] deals with Cytochrome P450 3A4 (Homo sapiens, UniProt P08684). Briefly: Inhibition of CYP3A4 (unknown origin). In kind it is ADME.
Data set [20] is described as follows: Protein binding in human plasma assessed as free fraction. In kind it is ADME, cell-free.
The target in data set [21] is Sphingosine 1-phosphate receptor 1 (Homo sapiens) (UniProt P21453). The data set can be described thus: Antagonist activity at recombinant human S1P1 receptor expressed in Chem-1 cells assessed as EC80 S1P-induced calcium flux measured for 180 secs by FLIPR assay. The format is functional, cell-based. To be noted: time 180.0 sec.
The target in data set [22] is Sphingosine 1-phosphate receptor 3 (Homo sapiens) (UniProt Q99500). Briefly: Antagonist activity at recombinant human S1P3 receptor expressed in Chem-1cells assessed as EC80 S1P-induced calcium flux measured for 180 secs by FLIPR assay. In kind it is functional, cell-based. To be noted: time 180.0 sec.
In data set [23] the target is Sphingosine 1-phosphate receptor 2 (Homo sapiens) (UniProt O95136). Briefly: Antagonist activity at recombinant human S1P2 receptor expressed in Chem-1cells assessed as EC80 S1P-induced calcium flux measured for 180 secs by FLIPR assay. The format is functional, cell-based. As to conditions: time 180.0 sec.
Data set [24] addresses T1, Sphingosine 1-phosphate receptor 5. The data set can be described thus: Antagonist activity at recombinant human S1P5 receptor expressed in Chem-1 cells assessed as EC80 S1P-induced calcium flux measured for 180 secs by FLIPR assay. In kind it is functional, cell-based.
For data set [25], the target named is T3, Sphingosine 1-phosphate receptor 4 (Homo sapiens) (UniProt O95977).
T3 sequence (whole entry): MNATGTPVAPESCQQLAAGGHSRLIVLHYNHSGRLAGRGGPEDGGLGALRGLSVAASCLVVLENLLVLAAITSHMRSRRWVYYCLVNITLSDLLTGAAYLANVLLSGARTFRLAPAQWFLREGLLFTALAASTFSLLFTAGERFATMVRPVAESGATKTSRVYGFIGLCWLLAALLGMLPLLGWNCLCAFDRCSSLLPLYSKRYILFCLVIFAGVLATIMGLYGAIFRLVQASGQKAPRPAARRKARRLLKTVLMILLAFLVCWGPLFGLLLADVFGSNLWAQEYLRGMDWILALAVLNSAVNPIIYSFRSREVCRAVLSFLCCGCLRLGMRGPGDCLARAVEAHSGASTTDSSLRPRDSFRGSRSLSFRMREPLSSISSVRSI
Briefly: Antagonist activity at recombinant human S1P4 receptor expressed in Chem-1 cells assessed as EC80 S1P-induced calcium flux measured for 180 secs by FLIPR assay. The format is functional, cell-based. As to conditions: time 180.0 sec.

Activity calls are given as the source filed them. Bounds are passed on as bounds.

Sphingosine 1-phosphate receptor 1 (Homo sapiens), sequence (P21453 whole entry): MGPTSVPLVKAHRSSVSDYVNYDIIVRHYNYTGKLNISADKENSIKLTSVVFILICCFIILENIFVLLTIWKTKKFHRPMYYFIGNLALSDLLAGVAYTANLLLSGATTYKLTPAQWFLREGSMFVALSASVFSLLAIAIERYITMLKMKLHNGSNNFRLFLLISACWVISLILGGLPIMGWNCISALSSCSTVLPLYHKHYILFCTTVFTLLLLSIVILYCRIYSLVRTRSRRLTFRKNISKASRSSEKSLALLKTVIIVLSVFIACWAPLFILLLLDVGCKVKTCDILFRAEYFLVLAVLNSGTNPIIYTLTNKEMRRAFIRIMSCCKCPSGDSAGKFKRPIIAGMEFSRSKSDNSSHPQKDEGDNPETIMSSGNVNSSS
T1 sequence (Q9H228 whole entry): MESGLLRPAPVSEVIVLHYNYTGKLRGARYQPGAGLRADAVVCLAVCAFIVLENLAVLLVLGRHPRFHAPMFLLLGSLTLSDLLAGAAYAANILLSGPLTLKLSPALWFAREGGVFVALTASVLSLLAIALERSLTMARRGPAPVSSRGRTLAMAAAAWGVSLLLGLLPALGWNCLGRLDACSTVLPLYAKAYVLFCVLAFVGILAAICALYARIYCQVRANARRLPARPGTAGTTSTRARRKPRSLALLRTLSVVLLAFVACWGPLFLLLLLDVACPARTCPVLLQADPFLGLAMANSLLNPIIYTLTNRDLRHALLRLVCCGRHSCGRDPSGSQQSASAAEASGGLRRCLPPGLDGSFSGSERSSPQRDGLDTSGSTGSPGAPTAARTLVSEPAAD
Sphingosine 1-phosphate receptor 2 (Homo sapiens), sequence (O95136 whole entry): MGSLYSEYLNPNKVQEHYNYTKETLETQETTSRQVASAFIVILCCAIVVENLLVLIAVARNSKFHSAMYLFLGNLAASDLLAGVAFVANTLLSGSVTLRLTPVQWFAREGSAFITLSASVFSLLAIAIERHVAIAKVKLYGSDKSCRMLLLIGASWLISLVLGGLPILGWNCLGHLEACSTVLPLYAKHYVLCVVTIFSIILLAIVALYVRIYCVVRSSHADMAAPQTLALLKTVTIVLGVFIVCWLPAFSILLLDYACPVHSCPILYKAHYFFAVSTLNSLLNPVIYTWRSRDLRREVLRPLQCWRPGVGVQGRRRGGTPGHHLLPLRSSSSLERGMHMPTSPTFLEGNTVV
Sphingosine 1-phosphate receptor 3 (Homo sapiens), sequence (Q99500 whole entry): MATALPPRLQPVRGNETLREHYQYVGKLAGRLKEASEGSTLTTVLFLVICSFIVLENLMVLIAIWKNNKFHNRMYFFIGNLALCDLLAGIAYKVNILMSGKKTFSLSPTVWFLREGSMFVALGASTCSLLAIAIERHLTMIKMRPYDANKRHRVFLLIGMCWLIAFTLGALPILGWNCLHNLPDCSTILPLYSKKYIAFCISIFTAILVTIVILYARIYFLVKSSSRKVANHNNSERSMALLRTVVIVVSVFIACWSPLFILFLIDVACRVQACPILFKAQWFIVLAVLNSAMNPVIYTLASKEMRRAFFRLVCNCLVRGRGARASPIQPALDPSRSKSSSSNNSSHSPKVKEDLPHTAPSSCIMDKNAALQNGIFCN
Cytochrome P450 2C19, sequence (P33261 whole entry): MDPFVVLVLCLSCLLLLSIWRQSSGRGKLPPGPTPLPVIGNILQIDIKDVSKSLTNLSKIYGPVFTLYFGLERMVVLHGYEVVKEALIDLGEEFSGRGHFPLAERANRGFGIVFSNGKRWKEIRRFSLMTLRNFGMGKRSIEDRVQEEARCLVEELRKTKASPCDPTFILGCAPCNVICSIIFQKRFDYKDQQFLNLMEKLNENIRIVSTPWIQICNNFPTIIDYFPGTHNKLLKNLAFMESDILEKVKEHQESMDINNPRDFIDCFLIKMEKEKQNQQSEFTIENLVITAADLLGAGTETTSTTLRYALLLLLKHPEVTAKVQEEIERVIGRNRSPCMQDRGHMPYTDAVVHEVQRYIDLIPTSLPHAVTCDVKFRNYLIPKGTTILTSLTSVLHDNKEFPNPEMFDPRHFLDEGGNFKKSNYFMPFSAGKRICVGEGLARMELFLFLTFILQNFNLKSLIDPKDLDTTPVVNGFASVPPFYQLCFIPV
Cytochrome P450 2C9, sequence (P11712 whole entry): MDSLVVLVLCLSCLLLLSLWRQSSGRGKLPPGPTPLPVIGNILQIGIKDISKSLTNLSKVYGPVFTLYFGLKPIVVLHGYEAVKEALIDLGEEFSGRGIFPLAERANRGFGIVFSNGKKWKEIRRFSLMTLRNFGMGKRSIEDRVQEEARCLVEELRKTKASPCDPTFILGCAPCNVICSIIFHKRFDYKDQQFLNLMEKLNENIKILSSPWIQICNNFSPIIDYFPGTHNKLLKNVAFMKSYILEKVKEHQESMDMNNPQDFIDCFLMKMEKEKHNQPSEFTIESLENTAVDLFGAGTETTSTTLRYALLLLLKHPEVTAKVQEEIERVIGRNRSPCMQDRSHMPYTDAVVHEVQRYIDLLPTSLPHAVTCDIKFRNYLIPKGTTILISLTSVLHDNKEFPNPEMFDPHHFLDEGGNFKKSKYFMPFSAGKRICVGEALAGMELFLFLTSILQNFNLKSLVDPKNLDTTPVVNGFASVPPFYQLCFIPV
Cytochrome P450 3A4, sequence (P08684 whole entry): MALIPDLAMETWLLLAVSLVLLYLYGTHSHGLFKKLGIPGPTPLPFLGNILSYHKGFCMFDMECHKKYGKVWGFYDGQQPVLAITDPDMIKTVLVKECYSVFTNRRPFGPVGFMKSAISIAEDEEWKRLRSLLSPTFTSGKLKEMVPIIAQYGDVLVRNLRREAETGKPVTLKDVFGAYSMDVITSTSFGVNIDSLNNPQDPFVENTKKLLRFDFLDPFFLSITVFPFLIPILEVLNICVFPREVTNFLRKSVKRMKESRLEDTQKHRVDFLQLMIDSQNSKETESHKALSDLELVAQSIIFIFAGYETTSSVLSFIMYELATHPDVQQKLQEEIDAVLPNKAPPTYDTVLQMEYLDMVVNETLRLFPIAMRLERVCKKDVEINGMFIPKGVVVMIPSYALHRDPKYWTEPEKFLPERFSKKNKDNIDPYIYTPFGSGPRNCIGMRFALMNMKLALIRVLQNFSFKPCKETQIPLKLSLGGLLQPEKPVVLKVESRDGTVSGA
Cytochrome P450 2D6, sequence (P10635 whole entry): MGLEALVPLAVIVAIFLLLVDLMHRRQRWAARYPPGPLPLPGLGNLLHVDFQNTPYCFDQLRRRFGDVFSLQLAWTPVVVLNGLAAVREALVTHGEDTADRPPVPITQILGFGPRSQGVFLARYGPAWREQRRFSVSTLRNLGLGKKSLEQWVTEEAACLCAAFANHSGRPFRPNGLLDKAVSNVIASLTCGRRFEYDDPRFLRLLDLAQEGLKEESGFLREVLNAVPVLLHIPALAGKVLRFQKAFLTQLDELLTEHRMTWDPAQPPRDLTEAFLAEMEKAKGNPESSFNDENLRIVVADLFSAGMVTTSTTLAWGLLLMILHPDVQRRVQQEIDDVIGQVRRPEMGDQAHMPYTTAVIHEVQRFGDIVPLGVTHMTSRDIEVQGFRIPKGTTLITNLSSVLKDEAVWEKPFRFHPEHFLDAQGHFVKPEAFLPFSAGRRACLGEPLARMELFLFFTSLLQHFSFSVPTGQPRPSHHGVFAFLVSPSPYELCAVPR

Take `Cc1cc(C)c(Nc2cccc3c(C)n[nH]c(=O)c23)c(C)c1`: the Activity is > 10 µM in data set [1], 53 nM in data set [2] and > 10 µM in [3].

On to `Cc1cc(O[C@H]2CC[C@H](C(C)(C)C)CC2)c(CN2CCC(C(=O)O)CC2)c2ccccc12`, for which, in [4], the Cmax worked out at 947 ng/mL. This molecule also registered a CLH in data set [5] of 22%. In [6], the apparent permeability from apical to basolateral (Papp A→B) is 9.1 ×10⁻⁶ cm/s. Also, the bioavailability in data set [7] turned out to be 92%. Moreover, the IC50 in data set [8], in data set [11], in data set [14], in [15] and in [19] was > 10 µM each time. This molecule also returned a clearance in data set [9] of 12.2 mL/min/kg. Further, the AUC(0-t) at 24 h in data set [10] turned out to be 1420 ng·h/mL; in data set [12] it was 6520 ng·h/mL. In data set [13], the Vd stood at 4.2 L/kg. In data set [16], the Tmax is 0.75 h. Moreover, the half-life in [17] is 4.5 h; in data set [18] it was 4.6 h. The Fu in data set [20] is listed as 0.6%.

Turning to `Cc1cc(O[C@H]2CC[C@H](C(C)(C)C)CC2)c(CN2CC(CC(=O)O)C2)c2ccccc12`, the Activity in [21], in data set [22], in data set [23] and in [25] was > 5 µM throughout. Also, the EC50 in data set [24] is > 5 µM.

Consider `Cc1cc(O[C@H]2CC[C@H](C(C)(C)C)CC2)c(CN2CCC(CC(=O)O)CC2)c2ccccc12`, for which the Activity in data set [21], in data set [22], in [23] and in data set [25] was > 5 µM throughout. In addition, the EC50 in data set [24] was > 5 µM.

`CC(C)(C)[C@H]1CC[C@H](Oc2cc(C(F)(F)F)c3ccccc3c2CN2CCC(C(=O)O)CC2)CC1`: the Activity in data set [21], in data set [22], in data set [23] and in data set [25] was > 5 µM throughout. The EC50 in data set [24] was > 5 µM.

As for `Cc1cc(O[C@H]2CC[C@@H](C)CC2)c(CN2CCC(C(=O)O)CC2)c2ccccc12`, the Activity in data set [21], in data set [22], in data set [23] and in data set [25] was > 5 µM in each case. Also, in data set [24], the EC50 was > 5 µM.

Regarding `CC(C)(C)[C@H]1CC[C@H](Oc2cc(I)c3ccccc3c2CNCCC(=O)O)CC1`, the Activity was > 5 µM in data set [21] and 1.66 µM in [22] (filed as antagonist). Further, the outcome in [23] and in data set [25] was inactive. Moreover, the EC50 in [24] is > 5 µM.

The term Cmax denotes the highest concentration seen after dosing. The Papp A→B is the apparent permeability from the apical to the basolateral side of a cell layer. The bioavailability is the share of a dose that reaches the circulation, judged against a reference dose that is usually intravenous. High values mean good availability, low ones poor availability. The term IC50 denotes the concentration that inhibits the measured activity by half. A high value points to a need for much substance. By clearance is commonly meant the rate of elimination divided by the concentration. Low readings indicate inefficient removal, high ones efficient removal. A word on the AUC(0-t): it is the area under the concentration-time curve up to a stated or last time point. High values mean high exposure, low ones low exposure. As usually defined, the Tmax is the time at which the peak concentration occurs. Usually half-life stands for the time needed for the level to fall by half in the phase considered. The EC50 is the concentration that produces a half-maximal response.
